Measurements published in article PMC12541710, “Design, synthesis, and anticancer evaluation of novel pyrazole–thiophene hybrid derivatives as multitarget inhibitors of wild EGFR, mutant (T790M) EGFR, and VEGFR-2” (RSC Advances, 2025).
Read-outs that look alike come from different tables or passages of the source. Each block holds one compound with its values, some of them ahead of it.

Tests used:
HepG2 [1] = experiment: MTT cytotoxicity assay, HepG2; conditions: Homo sapiens, HepG2, 24 h, read-out: In vitro Cytotoxicity (IC50, μM) HepG2
Excerpt: (§1) Two human cancer cell lines, HepG2 (human hepatocellular carcinoma) and MCF-7 (human breast adenocarcinoma), were used to test the produced compounds' cytotoxic activities. […] HepG2 cells, a hepatocellular carcinoma model, are widely used for studying VEGF/VEGFR-2-mediated angiogenesis and tumor progression.[76,77] Thus, these models provided a relevant system for assessing the potential EGFR/VEGFR inhibitory effects of our synthesized compounds. Accordingly, provide complementary systems for assessing the multitarget inhibitory potential of the synthesized pyrazole–thiophene hybrids against EGFR- and VEGFR-2-mediated oncogenic pathways. […] The cytotoxic activity of the synthesized pyrazole–thiophene derivatives was initially evaluated against two standard human cancer cell lines: MCF-7 and HepG2, which are widely used in cytotoxicity screening using the 3-(4,5-dimethylthiazol-2-yl)-2,5-diphenyltetrazolium bromide (MTT) assay (SI data, S1).[81–84] […]
(§2) S1. Analysis of Cytotoxic Inhibitory Concentration 50 (IC 50) with respect to HepG2 and MCF-7 The cytotoxic activity of the synthesized compounds was evaluated against MCF-7 and HepG2 cell lines using the 3-(4,5-dimethylthiazol-2-yl)-2,5-diphenyltetrazolium bromide (MTT) assay 2-5.
(§3) 100 µg/mL streptomycin, then seeded in 96 -well plates (1 × 10⁴ cells/well) and incubated at 37 °C with 5% CO₂ for 48 h. Test compounds, prepared by serial dilutio n, were added for 24 h, after which 20 µL of MTT solution (5 mg/mL) was introduced and incubated for 4 h. Formazan crystals were dissolved […]
(§4) Cell viability was ca lculated relative to untreated controls, and IC₅₀ values were obtained from dose – response curves by nonlinear regression. […]

MCF-7 [2] = experiment: MTT cytotoxicity assay, MCF-7; conditions: Homo sapiens, MCF7, 24 h, read-out: In vitro Cytotoxicity (IC50, μM) MCF-7
Excerpt: as §1, §2, §3, §4

EGFR mutant (T790M) = biological target: T1, EGFR mutant (T790M) (Homo sapiens, UniProt P00533, T790M); experiment: EGFR enzyme inhibition assay (mutant T790M), Kinase-Glo kit; format: biochemical
T1 construct: purchased #40323
T1 sequence (P00533 25-1210 T790M): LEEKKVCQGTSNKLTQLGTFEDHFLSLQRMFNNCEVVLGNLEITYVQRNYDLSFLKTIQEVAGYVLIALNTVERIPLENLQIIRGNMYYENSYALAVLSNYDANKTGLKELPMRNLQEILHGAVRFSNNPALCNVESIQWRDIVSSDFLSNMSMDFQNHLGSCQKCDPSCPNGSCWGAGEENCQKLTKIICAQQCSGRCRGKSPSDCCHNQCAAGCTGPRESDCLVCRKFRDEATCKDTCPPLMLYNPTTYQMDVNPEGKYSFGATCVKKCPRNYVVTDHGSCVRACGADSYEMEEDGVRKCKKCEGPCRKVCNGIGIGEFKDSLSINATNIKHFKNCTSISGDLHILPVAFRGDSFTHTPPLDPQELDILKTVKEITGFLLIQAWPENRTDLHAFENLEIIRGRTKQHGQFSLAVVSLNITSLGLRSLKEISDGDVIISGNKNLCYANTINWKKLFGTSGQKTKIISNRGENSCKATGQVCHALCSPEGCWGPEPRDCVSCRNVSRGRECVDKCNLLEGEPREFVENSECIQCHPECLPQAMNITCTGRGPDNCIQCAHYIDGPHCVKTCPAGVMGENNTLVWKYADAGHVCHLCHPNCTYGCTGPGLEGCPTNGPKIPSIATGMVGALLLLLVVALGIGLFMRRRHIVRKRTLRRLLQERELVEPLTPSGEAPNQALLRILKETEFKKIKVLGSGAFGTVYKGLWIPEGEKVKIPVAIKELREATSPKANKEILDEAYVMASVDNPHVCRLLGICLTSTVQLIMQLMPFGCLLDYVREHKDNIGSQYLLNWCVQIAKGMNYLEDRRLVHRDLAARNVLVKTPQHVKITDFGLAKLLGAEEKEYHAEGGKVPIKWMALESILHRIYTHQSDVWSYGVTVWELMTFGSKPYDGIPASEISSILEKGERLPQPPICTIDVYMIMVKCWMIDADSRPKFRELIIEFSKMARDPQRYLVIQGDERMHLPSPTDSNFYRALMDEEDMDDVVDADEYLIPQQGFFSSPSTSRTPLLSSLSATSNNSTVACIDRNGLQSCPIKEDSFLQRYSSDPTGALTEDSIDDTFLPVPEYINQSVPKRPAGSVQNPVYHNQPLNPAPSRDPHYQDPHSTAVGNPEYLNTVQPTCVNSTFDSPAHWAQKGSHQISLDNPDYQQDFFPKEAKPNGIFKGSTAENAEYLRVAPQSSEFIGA
Procedure: (§5) Supporting Information (SI)
(§6) Formazan crystals were dissolved
(§7) response curves by nonlinear regression.
(§8) performed in 96 -well plates containing purified recombinant EGFR. Each we ll received 25 µL of
(§9) control). […] The reaction was initiated
(§10) After incubation, 50 µL of
(§11) min. Luminescence was then recorded using a microplate ELISA reader. Erlotinib served as t he
(§12) incubated for 5 min at room temperature.

wild-type EGFR = biological target: T2, wild-type EGFR (Homo sapiens, UniProt P00533); experiment: EGFR enzyme inhibition assay (wild type), Kinase-Glo kit; format: biochemical
T2 construct: purchased #40321
T2 sequence (P00533 25-1210): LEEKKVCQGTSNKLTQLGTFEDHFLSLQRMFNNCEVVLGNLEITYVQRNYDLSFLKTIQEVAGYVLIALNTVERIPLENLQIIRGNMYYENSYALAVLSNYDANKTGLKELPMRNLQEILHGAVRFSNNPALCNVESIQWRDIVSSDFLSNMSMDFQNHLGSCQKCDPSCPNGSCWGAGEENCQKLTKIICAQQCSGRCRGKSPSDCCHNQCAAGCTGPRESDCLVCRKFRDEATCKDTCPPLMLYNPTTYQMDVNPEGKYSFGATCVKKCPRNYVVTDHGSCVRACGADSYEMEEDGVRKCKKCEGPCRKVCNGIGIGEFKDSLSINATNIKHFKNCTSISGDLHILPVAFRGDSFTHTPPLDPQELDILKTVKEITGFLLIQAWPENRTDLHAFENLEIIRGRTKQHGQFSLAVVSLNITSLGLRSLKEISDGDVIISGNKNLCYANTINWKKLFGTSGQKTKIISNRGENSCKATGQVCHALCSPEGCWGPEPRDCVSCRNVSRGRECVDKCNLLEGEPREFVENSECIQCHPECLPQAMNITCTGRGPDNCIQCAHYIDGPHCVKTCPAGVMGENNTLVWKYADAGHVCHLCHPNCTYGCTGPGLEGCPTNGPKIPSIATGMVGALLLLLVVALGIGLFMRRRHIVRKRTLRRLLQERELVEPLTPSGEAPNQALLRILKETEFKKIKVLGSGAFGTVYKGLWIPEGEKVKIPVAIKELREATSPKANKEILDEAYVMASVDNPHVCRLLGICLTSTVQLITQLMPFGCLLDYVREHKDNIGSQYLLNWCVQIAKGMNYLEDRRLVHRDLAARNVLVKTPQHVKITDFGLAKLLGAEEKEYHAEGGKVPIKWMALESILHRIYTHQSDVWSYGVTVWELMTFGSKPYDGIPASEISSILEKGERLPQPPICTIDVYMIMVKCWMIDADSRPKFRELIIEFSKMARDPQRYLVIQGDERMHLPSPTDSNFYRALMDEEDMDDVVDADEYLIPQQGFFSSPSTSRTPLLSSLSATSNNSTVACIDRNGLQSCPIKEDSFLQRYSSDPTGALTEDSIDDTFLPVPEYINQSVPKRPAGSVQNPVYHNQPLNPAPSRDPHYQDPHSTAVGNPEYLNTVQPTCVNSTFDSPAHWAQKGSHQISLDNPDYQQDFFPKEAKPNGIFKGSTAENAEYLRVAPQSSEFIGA
Procedure: as §5, §6, §7, §8, §9, §10, §11, §12

VEGFR-2 = biological target: T3, VEGFR-2 (Homo sapiens, UniProt P35968); experiment: VEGFR-2 enzyme inhibition assay (HTScan Tyrosine Kinase Assay); format: biochemical
T3 construct: purchased Cell Signaling Technology #7788
T3 sequence (P35968 789-1356 limits assumed): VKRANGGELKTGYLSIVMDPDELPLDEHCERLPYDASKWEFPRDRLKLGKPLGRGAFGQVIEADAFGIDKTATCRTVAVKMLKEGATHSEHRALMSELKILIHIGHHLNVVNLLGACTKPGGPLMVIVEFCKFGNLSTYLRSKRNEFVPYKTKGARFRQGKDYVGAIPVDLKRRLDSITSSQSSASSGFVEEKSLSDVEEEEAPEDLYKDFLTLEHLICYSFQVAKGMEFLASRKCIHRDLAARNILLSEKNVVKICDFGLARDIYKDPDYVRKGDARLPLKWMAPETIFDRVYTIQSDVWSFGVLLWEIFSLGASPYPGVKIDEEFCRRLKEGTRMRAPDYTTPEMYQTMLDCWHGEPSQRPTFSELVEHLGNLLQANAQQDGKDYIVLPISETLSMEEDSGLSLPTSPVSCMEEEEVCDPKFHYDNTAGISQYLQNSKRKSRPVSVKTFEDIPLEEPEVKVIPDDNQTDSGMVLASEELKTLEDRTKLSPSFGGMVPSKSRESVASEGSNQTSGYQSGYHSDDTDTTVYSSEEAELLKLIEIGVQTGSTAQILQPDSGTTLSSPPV

MCF-7 cells [3] = experiment: Annexin V-FITC/PI apoptosis and necrosis assay; format: cell-based, human; conditions: MCF-7, 10 µM, 48 h
Procedure: Flow cytometric assay and the pro-apoptotic activity of compound 14 were assessed using the Annexin V-FITC Apoptosis Detection Kit (BioVision, USA; Cat. No. K101-25). The assay of compound 14 was performed in accordance with the reported procedure,[87,88] (SI data, S3). […]
The pro-apoptotic activity of compound 14 was assessed using the Annexin V -FITC Apoptosis Detection Kit (BioVision, USA; Cat. No. K101 -25) according to the manufacturer’s instructions.
MCF-7 cells (1–5 × 10⁵) were seeded and treated with 10 µM of 14 for 48 h. After treatment, both floating and adherent cells were collected by gentle trypsinization, washed with serum -containing medium, and resuspended in 500 µL of 1× Binding Buffer. Each sample was stained with 5 µL Annexin V-FITC and 5 µL propidium iodide (50 µg/mL) for 5 min at room temperature in the dark, then analyzed by flow cytometry. […]

MCF-7 cells [4] = experiment: Cell cycle analysis by PI flow cytometry; format: cell-based, human; conditions: MCF-7, 10 µM, 48 h
Procedure: S3. Assessment of the Impact of Compound 14 on Cell Cycle Progression and Apoptosis in MCF - […]
MCF-7 breast cancer cells were seeded under standard culture conditions and treated with 10 µM of compound 14 for 48 h. After treatment, cells were harvested by trypsinization, washed with PBS, and fixed in ice-cold 66% ethanol at 4 °C for at least 2 h. Prior to analysis, cells were washed again with PBS and stained using the Propidium Iodide Flow Cytometry Kit ( ab139418, Abcam, UK) according to the manufacturer’s instructions. Staining was carried out with PI and RNase at 37 °C in the dark for 30 min. Cell cycle distribution (G0/G1, S, and G2/M phases) was then determined by measuring PI fluorescence intensity in the FL2 channel 8. […]

MCF-7 [5] = conditions: reference drug value; read-out: In vitro Cytotoxicity (IC50, μM) MCF-7; cited from earlier work
HepG2 [6] = conditions: reference drug value; read-out: In vitro Cytotoxicity (IC50, μM) HepG2; cited from earlier work
[7] = system: human pancreatic tumor (AsPC-1) and human glioblastoma (U251); parameters: method as in PMID 26492233; conditions: read-out: IC50 against AsPC-1 and U251; cited from earlier work

Structure (SMILES): O=C(C=Cc1cccs1)c1ccc([N+](=O)[O-])cc1 [Compound 1, 1-(4-nitrophenyl)-3-(thiophen-2-yl)prop-2-en-1-one]
IC50 (HepG2 [1]): 90.5 µM
IC50 (MCF-7 [2]): > 100 µM

IC50 (EGFR mutant (T790M)): 65.1 µM
IC50 (wild-type EGFR): 59.5 µM
IC50 (VEGFR-2): 889 µM
Structure (SMILES): O=[N+]([O-])c1ccc(C2=NNC(c3cccs3)C2)cc1 (stereo not drawn) [Compound 2, 3-(4-nitrophenyl)-5-(thiophen-2-yl)-4,5-dihydro-1H-pyrazole]
IC50 (HepG2 [1]): 8.86 µM
IC50 (MCF-7 [2]): 6.57 µM

Structure (SMILES): CC(=O)N1N=C(c2ccc([N+](=O)[O-])cc2)CC1c1cccs1 (stereo not drawn) [Compound 3, 1-(3-(4-nitrophenyl)-5-(thiophen-2-yl)-4,5-dihydro-1H-pyrazol-1-yl) ethan-1-one]
IC50 (HepG2 [1]): 53.2 µM
IC50 (MCF-7 [2]): 43.6 µM

Structure (SMILES): O=CN1N=C(c2ccc([N+](=O)[O-])cc2)CC1c1cccs1 (stereo not drawn) [Compound 4, 3-(4-nitrophenyl)-5-(thiophen-2-yl)-4,5-dihydro-1H-pyrazole-1-carbaldehyde]
IC50 (HepG2 [1]): 84 µM
IC50 (MCF-7 [2]): 92.1 µM

Structure (SMILES): O=[N+]([O-])c1ccc(C2=Nc3ccccc3NC(c3cccs3)C2)cc1 (stereo not drawn) [Compound 5, 4-(4-nitrophenyl)-2-(thiophen-2-yl)-2,3-dihydro-1H-benzo[b][1,4] diazepine]
IC50 (HepG2 [1]): 62.6 µM
IC50 (MCF-7 [2]): 75.5 µM

Structure (SMILES): N#Cc1c(-c2cccs2)cc(-c2ccc([N+](=O)[O-])cc2)[nH]c1=O [Compound 6, 6-(4-nitrophenyl)-2-oxo-4-(thiophen-2-yl)-1,2-dihydropyridine-3-carbonitrile]
IC50 (HepG2 [1]): 28.9 µM
IC50 (MCF-7 [2]): 23.3 µM

Structure (SMILES): O=C(CCl)N1N=C(c2ccc([N+](=O)[O-])cc2)CC1c1cccs1 (stereo not drawn) [Compound 7, 2-chloro-1-(3-(4-nitrophenyl)-5-(thiophen-2-yl)-4,5-dihydro-1H-pyrazol-1-yl)ethan-1-one]
IC50 (HepG2 [1]): 78.1 µM
IC50 (MCF-7 [2]): 75 µM

IC50 (EGFR mutant (T790M)): 121 µM
IC50 (wild-type EGFR): 66.6 µM
IC50 (VEGFR-2): 85.1 µM
Structure (SMILES): O=C(O)c1ccccc1C(=O)N1N=C(c2ccc([N+](=O)[O-])cc2)CC1c1cccs1 (stereo not drawn) [Compound 8, 2-(3-(4-nitrophenyl)-5-(thiophen-2-yl)-4,5-dihydro-1H-pyrazole-1-carbonyl)benzoic acid]
IC50 (HepG2 [1]): 13.5 µM
IC50 (MCF-7 [2]): 8.08 µM

Structure (SMILES): O=C(O)CCC(=O)N1N=C(c2ccc([N+](=O)[O-])cc2)CC1c1cccs1 (stereo not drawn) [Compound 9, 4-(3-(4-nitrophenyl)-5-(thiophen-2-yl)-4,5-dihydro-1H-pyrazol-1-yl)-4-oxobutanoic acid]
IC50 (HepG2 [1]): 22.6 µM
IC50 (MCF-7 [2]): 17.8 µM

Structure (SMILES): O=C(O)C=CC(=O)N1N=C(c2ccc([N+](=O)[O-])cc2)CC1c1cccs1 (stereo not drawn) [Compound 10, 4-(3-(4-nitrophenyl)-5-(thiophen-2-yl)-4,5-dihydro-1H-pyrazol-1-yl)-4-oxobut-2-enoic acid]
IC50 (HepG2 [1]): 36.4 µM
IC50 (MCF-7 [2]): 32.6 µM

Structure (SMILES): O=[N+]([O-])c1ccc(C2=NN(CN3N=C(c4ccc([N+](=O)[O-])cc4)CC3c3cccs3)C(c3cccs3)C2)cc1 (stereo not drawn) [Compound 11, bis(3-(4-nitrophenyl)-5-(thiophen-2-yl)-4,5-dihydro-1H-pyrazol-1-yl)methane]
IC50 (HepG2 [1]): 74.2 µM
IC50 (MCF-7 [2]): 87.4 µM

Structure (SMILES): COC(=O)/C=C(\C(=O)OC)N1N=C(c2ccc([N+](=O)[O-])cc2)CC1c1cccs1 (stereo not drawn) [Compound 12, dimethyl 2-(3-(4-nitrophenyl)-5-(thiophen-2-yl)-4,5-dihydro-1H-pyrazol-1-yl)maleate]
IC50 (HepG2 [1]): 59.3 µM
IC50 (MCF-7 [2]): 51.7 µM

Structure (SMILES): O=C(O)n1nc(-c2ccc([N+](=O)[O-])cc2)cc1-c1cccs1 [Compound 13, 3-(4-nitrophenyl)-5-(thiophen-2-yl)-1H-pyrazole-1-carboxylic acid]
IC50 (HepG2 [1]): 41.4 µM
IC50 (MCF-7 [2]): 37.1 µM

IC50 (EGFR mutant (T790M)): 48.3 µM
IC50 (wild-type EGFR): 47.6 µM
IC50 (VEGFR-2): 327 µM
Structure (SMILES): CC(=O)C1C(c2ccc([N+](=O)[O-])cc2)=NN(C=O)C1c1cccs1 (stereo not drawn) [Compound 14, 4-Acetyl-3-(4-nitrophenyl)-5-(thiophen-2-yl)-4,5-dihydro-1H-pyrazole-1-carbaldehyde]
IC50 (HepG2 [1]): 19.6 µM
IC50 (MCF-7 [2]): 12.9 µM
Apoptosis Late (MCF-7 cells [3]; control 0.14%): 7.1%
Apoptosis Early (MCF-7 cells [3]; control 0.69%): 15.02%
Necrosis (MCF-7 cells [3]; control 2.36%): 4.2%
Cell cycle analysis Comment (MCF-7 cells [4]): Cell cycle arrest at G1phase
Cell cycle analysis %G2/M (MCF-7 cells [4]; control 16.74%): 6.62%
Cell cycle analysis %S (MCF-7 cells [4]; control 27.95%): 19.22%
Cell cycle analysis %G0-G1 (MCF-7 cells [4]; control 55.31%): 74.16%

Structure (SMILES): COc1cccc2c1C(=O)c1c(O)c3c(c(O)c1C2=O)C[C@@](O)(C(=O)CO)C[C@@H]3O[C@H]1C[C@H](N)[C@H](O)[C@H](C)O1 [Doxorubicin, doxorubicin, reference compound]
IC50 (HepG2 [1]): 4.5 µM

Structure (SMILES): C#Cc1cccc(Nc2ncnc3cc(OCCOC)c(OCCOC)cc23)c1 [Erlotinib, erlotinib]
IC50 (MCF-7 [5]): 8.2 µM
IC50 (HepG2 [6]): 7.73 µM

Structure (SMILES): Cc1ccc(-c2nnc(SCC(=O)N3N=C(c4cccs4)CC3c3ccc(Cl)cc3)o2)cc1 (stereo not drawn) [compound II]
IC50 [7]: 12 to 17 µM
